Data as given in patent publication US8178535B2, “Substituted sulfonamide compounds having bradykinin 1 receptor activity and use thereof as medicaments” (Gruenenthal GmbH, priority 2008, dated 2012).

What was measured:
[1] = biological target: T1, B1R receptor of rats (rB1R) (Rattus norvegicus, UniProt P97583); assay: FLIPR Ca2+ assay (Fluo-4) on CHO K1 cells stably transfected with the B1R gene of rats; format: cell-based; conditions: CHO-K1; test substance 10 μM; agonist Des-Arg9-bradykinin 100 nM; % inhibition compared to the maximum achievable inhibition
T1 construct: host or cells: CHO K1 cells
T1 sequence (P97583 1-337): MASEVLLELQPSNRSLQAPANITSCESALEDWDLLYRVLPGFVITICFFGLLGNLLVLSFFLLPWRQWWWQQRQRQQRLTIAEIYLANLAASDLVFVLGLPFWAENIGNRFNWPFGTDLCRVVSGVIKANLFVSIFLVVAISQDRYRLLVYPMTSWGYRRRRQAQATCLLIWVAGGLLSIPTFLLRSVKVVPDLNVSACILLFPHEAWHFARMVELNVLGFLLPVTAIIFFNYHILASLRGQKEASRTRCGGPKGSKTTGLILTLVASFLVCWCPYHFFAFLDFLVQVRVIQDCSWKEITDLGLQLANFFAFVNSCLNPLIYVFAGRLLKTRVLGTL
Description: (§1) The agonistic or antagonistic action of compounds can be quantified on the bradykinin 1 receptor (B1R) of humans and rats with ectopically expressing cell lines (CHO K1 cells) and with the aid of a Ca^2+-sensitive dye (Fluo-4) in the fluorescent imaging plate reader (FLIPR). The figure in percent activation refers to the Ca^2+ signal after addition of Lys-Des-Arg^9-bradykinin (0.5 nM) and Des-Arg^9-bradykinin (100 nM). Antagonists result in a suppression of the Ca^2+ inflow after the addition of the agonist. Percent inhibition values are given in comparison to the maximum achievable inhibition. The compounds according to the invention act, for example, on the B1R which is implicated in various disease states. This means that the compounds of the invention are useful as pharmaceutically active substances in medicaments for the treatment and/or inhibition of such disease states.
(§2) The agonistic or antagonistic action of substances can be determined on the bradykinin 1 receptor (B1R) of humans and rats by means of the following assay. According to this assay the Ca^2+ inflow through the channel is quantified by means of a Ca^2+-sensitive dye (Fluo-4 type, Molecular Probes Europe BV, Leiden, Netherlands), in a Fluorescent Imaging Plate Reader (FLIPR, Molecular Devices, Sunnyvale, USA).
(§3) Chinese hamster ovary cells (CHO K1 cells) are used, which are stably transfected with the human B1R gene (hB1R cells, Euroscreen s.a., Gosselies, Belgium), or with the B1R gene of rats (rB1R cells, Axxam, Milan, Italy). For functional investigations these cells are plated out on black 96-well plates with a clear floor (BD Biosciences, Heidelberg, Germany) in a density of 20,000/25,000 cells/well. The cells are incubated overnight with 10 vol. % FBS (foetal bovine serum, Gibco Invitrogen GmbH, Karlsruhe, Germany) at 37° C. and 5% CO2 in a culture medium (hB1R cells: Nutrient Mixture Ham's F12, Gibco Invitrogen GmbH, Karlsruhe, Germany; rB1R cells: D-MEM/F12, Gibco Invitrogen GmbH, Karlsruhe, Germany). The following day the cells are charged for 60 minutes at 37° C. with 2.13 μM Fluo-4 (Molecular Probes Europe BV, Leiden, Netherlands) in HBSS buffer (Hank's buffered saline solution, Gibco Invitrogen GmbH, Karlsruhe, Germany) together with […] (Sigma-Aldrich, Taufkirchen, Germany) and 10 mM HEPES (Sigma-Aldrich, Taufkirchen, Germany).
(§4) The plates are then washed twice with HBSS buffer and HBSS buffer is added which additionally contains 0.1% BSA (bovine serum albumin; Sigma-Aldrich, Taufkirchen, Germany), 5.6 mM glucose and 0.05% gelatin (Merck KGaA, Darmstadt, Germany). After further incubation for 20 minutes at room temperature the plates are used for the Ca^2+ measurement in the FLIPR. The Ca^2+-dependent fluorescence is measured both before and after the addition of substances (λex=488 nm, λem=540 nm). The quantification is carried out by measuring the highest fluorescence intensity (FC, fluorescence counts) over time.
(§5) The FLIPR protocol consists of two substance additions. First, test substances (10 μM) are pipetted onto the cells and the Ca^2+ inflow is compared with the control (hB1R: Lys-Des-Arg9-bradykinin 0.5 nM; rB1R: Des-Arg9-bradykinin 100 nM). This gives the result in percent activation referred to the Ca^2+ signal after addition of Lys-Des-Arg9-bradykinin (0.5 nM), bzw. Des-Arg9-bradykinin (100 nM). After 10 minutes' incubation 0.5 nM Lys-Des-Arg9-bradykinin (hB1R) and 100 nM Des-Arg^9-bradykinin (rB1R) are applied and the inflow of Ca^2+ is likewise determined. Antagonists lead to a suppression of the Ca^2+ inflow. The percent inhibition compared to the maximum achievable inhibition is calculated. The compounds show a good activity on both human and rat receptors.
(§6) The agonistic and antagonistic action of the compounds according to the invention on the bradykinin 1 receptor (B1R) of humans and rats were determined as described above. Antagonists lead to a suppression of the Ca^2+ inflow. […]

[2] = biological target: T2, human B1R receptor (hB1R) (Homo sapiens, UniProt P46663); assay: FLIPR Ca2+ assay (Fluo-4) on CHO K1 cells stably transfected with the human B1R gene; format: cell-based; conditions: CHO-K1; test substance 10 μM; agonist Lys-Des-Arg9-bradykinin 0.5 nM; % inhibition compared to the maximum achievable inhibition
T2 construct: host or cells: CHO K1 cells
T2 sequence (P46663 1-353): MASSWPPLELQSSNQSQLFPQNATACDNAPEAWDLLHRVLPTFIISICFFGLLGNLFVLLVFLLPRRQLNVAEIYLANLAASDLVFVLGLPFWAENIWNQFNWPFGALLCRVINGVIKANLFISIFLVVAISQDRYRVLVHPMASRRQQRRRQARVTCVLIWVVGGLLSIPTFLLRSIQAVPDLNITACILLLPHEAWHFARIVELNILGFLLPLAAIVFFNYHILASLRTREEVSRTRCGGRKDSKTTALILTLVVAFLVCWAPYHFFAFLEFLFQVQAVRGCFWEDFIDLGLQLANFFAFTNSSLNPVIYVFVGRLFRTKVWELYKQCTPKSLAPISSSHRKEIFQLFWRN
Description: as §1, §2, §3, §4, §5, §6

inhibition at 10 µM [1]	inhibition at 10 µM [2]	SMILES
103%		COc1cc(C)c(S(=O)(=O)N2CCCCC2COCC(=O)N2CCn3c(CN4CCCCC4)nnc3C2)c(C)c1 (stereo not shown) [(87), 2-((1-(4-Methoxy-2,6-dimethylphenylsulfonyl)piperidin-2-yl)methoxy)-1-(3-(piperidin-1-ylmethyl)-5,6-dihydro-[1,2,4]triazolo[4,3-a]pyrazin-7(8H)-yl)ethanone]
101%	105%	COc1cc(C)c(S(=O)(=O)N2CCCCC2COCC(=O)N2CCn3c(CN4CCN(C)CC4)ccc3C2)c(C)c1 (stereo not shown) [(4), 2-((1-(4-methoxy-2,6-dimethylphenylsulfonyl)piperidin-2-yl)methoxy)-1-(6-((4-methylpiperazin-1-yl)methyl)-3,4-dihydropyrrolo[1,2-a]pyrazin-2(1H)-yl)ethanone]
101%	100%	COc1cc(C)c(S(=O)(=O)N2CCCCC2COCC(=O)N2CCn3cc(-c4ccncc4)nc3C2)c(C)c1 (stereo not shown) [(112), 2-((1-(4-Methoxy-2,6-dimethylphenylsulfonyl)piperidin-2-yl)methoxy)-1-(2-(pyridin-4-yl)-5,6-dihydroimidazo[1,2-a]pyrazin-7(8H)-yl)ethanone]
100%	95%	COc1cc(C)c(S(=O)(=O)N2CCCCC2CCCC(=O)N2CCn3c(Cc4ccncc4)ccc3C2)c(C)c1 (stereo not shown) [(91), 4-(1-(4-Methoxy-2,6-dimethylphenylsulfonyl)piperidin-2-yl)-1-(6-(pyridin-4-ylmethyl)-3,4-dihydropyrrolo[1,2-a]pyrazin-2(1H)-yl)butan-1-one]
103%	102%	CCC1c2cccn2CCN1C(=O)COCC1CCCCN1S(=O)(=O)c1c(C)cc(OC)cc1C (stereo not shown) [(70), 1-(1-ethyl-3,4-dihydropyrrolo[1,2-a]pyrazin-2(1H)-yl)-2-((1-(4-methoxy-2,6-dimethylphenylsulfonyl)piperidin-2-yl)methoxy)ethanone]
99%	70%	COc1cc(C)c(S(=O)(=O)N2CCCCC2COCC(=O)N2CCn3ccnc3C2)c(C)c1 (stereo not shown) [(23), 1-(5,6-dihydroimidazo[1,2-a]pyrazin-7(8H)-yl)-2-((1-(4-methoxy-2,6-dimethyl-phenylsulfonyl)piperidin-2-yl)methoxy)ethanone]
99%	45%	COc1cc(C)c(S(=O)(=O)N2CCCCC2CCC(=O)N2CCn3c(ccc3-c3cccnc3)C2)c(C)c1 (stereo not shown) [(94), 3-(1-(4-Methoxy-2,6-dimethylphenylsulfonyl)piperidin-2-yl)-1-(6-(pyridin-3-yl)-3,4-dihydropyrrolo[1,2-a]pyrazin-2(1H)-yl)propan-1-one]
103%	101%	Cc1cc(C)c(S(=O)(=O)N2CCCCC2COCC(=O)N2CCn3c(CN4CCCC4)ccc3C2c2ccccc2)c(C)c1 (stereo not shown) [(47), 2-((1-(mesitylsulfonyl)piperidin-2-yl)methoxy)-1-(1-phenyl-6-(pyrrolidin-1-yl-methyl)-3,4-dihydropyrrolo[1,2-a]pyrazin-2(1H)-yl)ethanone]

More lines, now with the values behind:

SMILES	inhibition at 10 µM [1]	inhibition at 10 µM [2]
COc1cc(C)c(S(=O)(=O)N2CCCCC2COCC(=O)N2CCn3cccc3C2c2cccs2)c(C)c1 (stereo not shown) [(29), 2-((1-(4-methoxy-2,6-dimethylphenylsulfonyl)piperidin-2-yl)methoxy)-1-(1-(thiophen-2-yl)-3,4-dihydropyrrolo[1,2-a]pyrazin-2(1H)-yl)ethanone]	98%	102%
Cc1cc(C)c(S(=O)(=O)N2CCCCC2COCC(=O)N2CCn3cccc3C2CCc2ccccc2)c(C)c1 (stereo not shown) [(45), 2-((1-(mesitylsulfonyl)piperidin-2-yl)methoxy)-1-(1-phenethyl-3,4-dihydro-pyrrolo[1,2-a]pyrazin-2(1H)-yl)ethanone]	98%	45%
Cc1cc(C)c(S(=O)(=O)N2CCCCC2COCC(=O)N2CCn3cccc3C2C(C)C)c(C)c1 (stereo not shown) [(57), 1-(1-isopropyl-3,4-dihydropyrrolo[1,2-a]pyrazin-2(1H)-yl)-2-((1-(mesitylsulfonyl)piperidin-2-yl)methoxy)ethanone]	103%	102%
CCC1c2cccn2CCN1C(=O)COCC1CCCCN1S(=O)(=O)c1c(C)cc(C)cc1C (stereo not shown) [(55), 1-(1-ethyl-3,4-dihydropyrrolo[1,2-a]pyrazin-2(1H)-yl)-2-((1-(mesitylsulfonyl)piperidin-2-yl)methoxy)ethanone]	103%	98%
CN1CCN(CCCc2ccc3n2CCN(C(=O)COCC2CCc4ccccc4N2S(=O)(=O)c2ccc(Cl)c(Cl)c2)C3)CC1 (stereo not shown) [(16), 2-((1-(3,4-dichlorophenylsulfonyl)-1,2,3,4-tetrahydroquinolin-2-yl)methoxy)-1-(6-(3-(4-methylpiperazin-1-yl)propyl)-3,4-dihydropyrrolo[1,2-a]pyrazin-2(1H)-yl)ethanone]	92%	48%
COc1cccc(C2c3cccn3CCN2C(=O)COCC2CCCCN2S(=O)(=O)c2c(C)cc(OC)cc2C)c1 (stereo not shown) [(31), 2-((1-(4-methoxy-2,6-dimethylphenylsulfonyl)piperidin-2-yl)methoxy)-1-(1-(3-methoxyphenyl)-3,4-dihydropyrrolo[1,2-a]pyrazin-2(1H)-yl)ethanone]	98%	96%
CCCC1c2cccn2CCN1C(=O)COCC1CCCCN1S(=O)(=O)c1c(C)cc(OC)cc1C (stereo not shown) [(71), 2-((1-(4-methoxy-2,6-dimethylphenylsulfonyl)piperidin-2-yl)methoxy)-1-(1-propyl-3,4-dihydropyrrolo[1,2-a]pyrazin-2(1H)-yl)ethanone]	102%	103%
CCCC1c2cccn2CCN1C(=O)COCC1CCCCN1S(=O)(=O)c1c(C)cc(C)cc1C (stereo not shown) [(56), 2-((1-(mesitylsulfonyl)piperidin-2-yl)methoxy)-1-(1-propyl-3,4-dihydropyrrolo[1,2-a]pyrazin-2(1H)-yl)ethanone]	102%	95%
